One data set has as its system Colinus virginianus. To be noted: for LD50: acute, oral, mortality.
Another data set relates to Rattus norvegicus. Conditions: acute; oral; mortality.
For another data set, the system named is Oryctolagus sp. Conditions: reproduction developmental.
The subject of a further data set is Daphnia magna. Conditions: chronic/long-term; duration: 21 days; reproduction.
The test system of a further data set is Apis mellifera. Conditions: acute, duration: 48 hours, mortality.
A further data set has as its system Cyprinodon variegatus. Conditions: chronic/long-term; duration: 28 days; time to hatch.
The next data set deals with Oncorhynchus mykiss. Conditions: acute; duration: 96 hours; mortality.
In a further data set the test system is Bibionidae. Conditions: chronic/long-term; duration: 28 days; other.
The test system of another data set is Typhlodromus pyri. Nature of the data set: LR50; higher = less toxic. To be noted: chronic/long-term; duration: 14 days; mortality.
The next data set concerns Aphidius rhopalosiphi. Nature of the data set: LR50; higher = less toxic. To be noted: acute; duration: 48 hours; mortality.

SMILES strings stand for the structures.

With `Nc1cc(Cl)nc(C(=O)O)c1Cl` [4-Amino-3,6-dichloro-2-pyridinecarboxylic acid], the LD50 in the data set with Colinus virginianus (diet) is over 1460 mg/kg-day; with Colinus virginianus, over 2250 mg/kg-day; in the data set on Rattus norvegicus, over 5000 mg/kg-day; in the data set with Apis mellifera (dermal), over 100 µg/piece; in the data set on Apis mellifera (oral, unspecified), over 120 µg/piece. In the data set with Colinus virginianus (reproduction developmental, reproduction), this compound came in with an NOEL of 190 mg/kg-day. Further, the no observed adverse effect level (NOAEL) came out at 26 mg/kg-day in the data set with Oryctolagus sp. (clinical signs) and 256 mg/kg-day with Oryctolagus sp. (no effects). For the same compound, the NOEC was 100 mg/L with Daphnia magna; 3.2 mg/kg with Tagia sp. (chronic/long-term, duration: 8 weeks); 0.1 mg/L with Cyprinodon variegatus; 130 mg/L in the data set with Bibionidae. In addition, the LC50 in the data set with Tagia sp. (acute, duration: 14 days, mortality) was over 1000 mg/kg; in the data set on Oncorhynchus mykiss, over 100 µg/mL. The LR50 in the data set on Typhlodromus pyri and with Aphidius rhopalosiphi was over 60 g/ha each time.

What is called NOAEL is the highest dose or exposure tested at which no adverse effect was seen.

The values are drawn from EPA's ToxValDB 9.5 (doi:10.2903/j.efsa.2013.3352).
